Measured values published in patent US9920136B2, “Posaconazole immunoassays” (ARK Diagnostics, Inc., priority 2013, dated 2018).

Columns and labels:
[1] = system: Ab15421 (rabbit polyclonal antibody to posaconazole); test: Specificity of the immunoassay: cross-reactivity to antifungal triazoles; assay type: binding; conditions: Ab15421 with POS-IV G6PDH; for Cross-reaction of Ab15421 with other azole antifungals (in words): human serum samples, 10 μg/mL; for Cross-reactivity (%): triazole 20 μg/ml added to Posaconazole 10 μg/ml vs Posaconazole 10 μg/ml control, human serum
From the text: Antibodies obtained using any of the disclosed techniques are screened or purified not only for their ability to react with posaconazole, but for a low cross-reactivity with potential interfering substances. “Cross-reactivity” may be determined in a quantitative immunoassay by establishing a standard curve using known dilutions of the target analyte, posaconazole. The standard curve is then used to calculate the apparent concentration of the interfering substance present in various known amounts in samples assayed under similar condition. The cross-reactivity can be calculated as the apparent concentration divided by the actual concentration multiplied by 100. A certain immunoassay for determining cross-reactivity is a homogeneous enzyme immunoassay using a wild type G6PDH as described in U.S. Pat. No. 3,817,837 or mutant G6PDH engineered to contain a cysteine per subunit as described in U.S. Pat. Nos. 6,033,890, 6,090,567 and 6,455,288. Furthermore, the cross-reactivity can be determined in the same type of immunoassay in which the antibody will ultimately be used.
To human serum negative for antifungal azoles was added posaconazole dissolved in methanol to achieve a concentration of 10 μg/mL of posaconazole. […]
The assay was calibrated as described in Example 8 using Enzyme Conjugate Reagent NB051:154 containing conjugate POS-IV G6PDH and Antibody Reagent NB051:154 containing Ab15421. The testing was performed on the HITACHI 917. The samples were quantified from the calibration curve generated.

[2] = cited from earlier work
[3] = system: Ab15421 (rabbit polyclonal antibody to posaconazole); test: Homogeneous enzyme immunoassay calibration curve (POS-IV G6PDH conjugate and Ab15421) in pooled human serum; assay type: binding; conditions: HITACHI 917, 340 nm
Experimental: Ab15421 was used to measure enzyme activity, generate a calibration curve, and evaluate assay precision, accuracy and specificity. Ab15421 was added into the antibody diluent to prepare the antibody reagent. The antibody reagent included Ab15421 as prepared above, buffer, stabilizers, preservatives, and the substrates for the enzyme conjugate nicotinamide adenine dinucleotide (NAD^+) and glucose-6-phosphate. Enzyme conjugate POS-IV G6PDH was added into the conjugate reagent to prepare the enzyme conjugate reagent. The enzyme conjugate reagent included the conjugate, buffer, stabilizers and preservatives. Enzyme conjugate POS-IV G6PDH was used with Ab15421 in examples below.
Ab15421 was added into the antibody diluent to prepare the antibody reagent. The antibody reagent included Ab15421 as prepared above, buffer, stabilizers, preservatives, and the substrates for the enzyme conjugate NAD^+ and glucose 6 phosphate. Enzyme conjugate POS-IV G6PDH or a label protein including alkaline phosphatase, β-galactosidase and horse radish peroxidase was added into the conjugate reagent to prepare the enzyme conjugate reagent. The enzyme conjugate reagent included the conjugate, buffer, stabilizers and preservatives.
The posaconazole antibodies and enzyme conjugates were used in a homogeneous assay format to detect posaconazole samples. Posaconazole containing sample was incubated with antibody reagent followed by the addition of the enzyme conjugate reagent. The enzyme conjugate activity decreased upon binding to Ab15421. The enzyme conjugate, which was not bound to Ab15421, catalyzed the oxidation of glucose 6-phosphate (G6P). The oxidation of G6P was coupled with the reduction of NAD^+ to NADH, which was measured at 340 nm. The change in the absorbance at 340 nm was measured spectrophotometrically. The posaconazole concentration in a sample was measured in terms of G6PDH activity. The increase in the rate at 340 nm was due to the formation of NADH and was proportional to the enzyme conjugate activity. An assay curve was generated using posaconazole added into serum negative for posaconazole. The assay rate increased with increasing the concentration of free drug in the sample.
Posaconazole was dissolved in methanol to give a stock solution of 1000 μg/mL. Pooled human serum was aliquoted in 10 mL portions. Posaconazole stock solution was added to the aliquots of human serum in preparing a series of known concentrations of posaconazole calibrators ranging from 0 to 16 μg/mL. The assay was performed using Enzyme Conjugate Reagent NB051:154 containing conjugate POS-IV G6PDH and Antibody Reagent NB051:154 containing Ab15421. Calibration curves were generated on the HITACHI 917 automated clinical chemistry analyzer, as described in Example 7 by measuring each level in duplicate.

Reaction Rate (mA/min) Average of Duplicates ([3]; Posaconazole Conc. 1.0 μg/mL in pooled human serum) [mA/min]	Reaction Rate (mA/min) Average of Duplicates ([3]; Posaconazole Conc. 2.0 μg/mL in pooled human serum) [mA/min]	Reaction Rate (mA/min) Average of Duplicates ([3]; Posaconazole Conc. 4.0 μg/mL in pooled human serum) [mA/min]	Reaction Rate (mA/min) Average of Duplicates ([3]; Posaconazole Conc. 8.0 μg/mL in pooled human serum) [mA/min]	Reaction Rate (mA/min) Average of Duplicates ([3]; Posaconazole Conc. 16.0 μg/mL in pooled human serum) [mA/min]	SMILES	Cross-reaction of Ab15421 with other azole antifungals (in words) [1]	Cross-reactivity (%) [1] [%]	Increase of bioavailability on coadministration with food ([2]; coadministration with food)	Bioavailability (in words) ([2]; oral, saturable absorption)
					C[C@@H](c1ncncc1F)[C@](O)(Cn1cncn1)c1ccc(F)cc1F [Voriconazole]	did not crossreact	<0.01		
					OC(Cn1cncn1)(Cn1cncn1)c1ccc(F)cc1F [Fluconazole]	did not crossreact	<0.01		
165.7	235.5	304.7	371.7	409.4	CC[C@@H]([C@H](C)O)n1ncn(-c2ccc(N3CCN(c4ccc(OC[C@@H]5CO[C@@](Cn6cncn6)(c6ccc(F)cc6F)C5)cc4)CC3)cc2)c1=O [Posaconazole, 4-[4-[4-[4-[[(3R,5R)-5-(2,4-difluorophenyl)tetrahydro-5-(1H 1,2,4-triazol-1-ylmethyl)-3-furanyl]methoxy]phenyl]-1-piperazinyl]phenyl]-2-[(1S,2S)-1-ethyl-2-hydroxypropyl]-2,4-dihydro-3H-1,2,4-triazol-3-one]			up to 4 fold	low and highly variable bioavailability
